Laboratory results published in patent US8959984B2, “Proteome-wide quantification of small molecule binding to cellular target proteins” (priority 2007, dated 2015).
Several values for one entry are separate records, joined by “and”; a condition that tells them apart may be missing. Equal entries are not always repeated.

Biological target: T1, GAK (Homo sapiens, UniProt O14976)
T1 sequence (O14976 1-1311): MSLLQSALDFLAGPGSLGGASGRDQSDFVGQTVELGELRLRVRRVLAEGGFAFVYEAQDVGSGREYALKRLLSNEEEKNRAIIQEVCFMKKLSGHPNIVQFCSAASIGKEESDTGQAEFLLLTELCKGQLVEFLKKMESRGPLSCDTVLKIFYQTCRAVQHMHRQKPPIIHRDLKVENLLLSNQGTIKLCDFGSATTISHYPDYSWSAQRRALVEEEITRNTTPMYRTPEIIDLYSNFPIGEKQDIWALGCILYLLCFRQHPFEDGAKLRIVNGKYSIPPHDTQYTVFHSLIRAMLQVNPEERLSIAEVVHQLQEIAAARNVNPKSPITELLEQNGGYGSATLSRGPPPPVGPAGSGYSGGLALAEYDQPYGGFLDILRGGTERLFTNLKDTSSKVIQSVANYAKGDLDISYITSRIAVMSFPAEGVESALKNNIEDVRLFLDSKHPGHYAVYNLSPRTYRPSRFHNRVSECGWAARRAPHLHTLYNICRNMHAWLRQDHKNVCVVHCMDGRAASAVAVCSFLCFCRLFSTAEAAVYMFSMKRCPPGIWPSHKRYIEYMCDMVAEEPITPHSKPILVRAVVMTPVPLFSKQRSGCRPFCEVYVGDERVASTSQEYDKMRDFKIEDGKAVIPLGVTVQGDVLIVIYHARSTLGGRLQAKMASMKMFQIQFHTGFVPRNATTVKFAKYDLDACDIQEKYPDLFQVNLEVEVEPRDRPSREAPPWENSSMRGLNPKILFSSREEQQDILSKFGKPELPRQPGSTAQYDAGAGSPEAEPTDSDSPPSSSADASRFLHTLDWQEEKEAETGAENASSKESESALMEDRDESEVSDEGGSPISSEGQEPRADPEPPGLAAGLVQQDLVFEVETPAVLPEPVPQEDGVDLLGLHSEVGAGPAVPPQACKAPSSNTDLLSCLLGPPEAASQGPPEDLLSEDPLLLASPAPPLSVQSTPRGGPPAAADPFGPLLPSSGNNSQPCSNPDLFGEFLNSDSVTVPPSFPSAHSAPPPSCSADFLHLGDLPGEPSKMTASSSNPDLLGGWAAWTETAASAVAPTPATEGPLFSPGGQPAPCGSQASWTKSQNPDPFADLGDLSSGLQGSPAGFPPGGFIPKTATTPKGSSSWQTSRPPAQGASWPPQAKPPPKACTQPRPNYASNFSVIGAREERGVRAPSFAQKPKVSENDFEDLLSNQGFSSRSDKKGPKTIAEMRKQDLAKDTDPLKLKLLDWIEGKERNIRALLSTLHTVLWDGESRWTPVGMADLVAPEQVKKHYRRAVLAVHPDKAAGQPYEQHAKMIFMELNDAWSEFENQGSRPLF
Assay: binding to AX14596 beads (HeLa lysate, SILAC MS)

COc1cc2ncnc(Nc3ccc(F)c(Cl)c3)c2cc1OCCCN [AX14596]
Ki: 82 µM and 82.1 µM | r (3 mg/1 mg lysate): 2.59 | r (5 h/2.5 h inc. time): 1.05 | rAVERAGE (2. inc/1. inc): 0.45 | rAVERAGE (control/1. inc): 0.04 | % BOUND (bound to AX14596 beads): 55%
